Laboratory results as given in patent publication US9334289B2, “Cephem compound having catechol or pseudo-catechol structure” (SHIONOGI & CO., LTD., priority 2011, dated 2016).
Converted amounts (≈) assume the structure as drawn.

Columns and labels:
Assay in all cases: MIC, CLSI broth microdilution, Test Example 2
Format in all cases: cell-based
A. baumannii SR01331 = conditions: Acinetobacter baumannii, SR01331; PER-1, OXA-23.51 ESBL- & OXA-type carbapenemase producing strain; cation-adjusted Iso-Sensitest broth containing human Apo-transferrin; 5×10^5 cfu/mL; read-out: Minimum Inhibitory Concentration (MIC) A. baumannii SR01331
Protocol: (§1) Measurement of Minimum Inhibitory Concentration (MIC: μg/mL) was conducted according to CLSI (Clinical and Laboratory Standards Institute) method, and the amount of bacteria for inoculation was 5×10^5 cfu/mL, and cation-adjusted Iso-Sensitest broth containing human Apo-transferrin was used as a test medium, and the experiment was conducted using broth microdilution method.

P. aeruginosa SR01332 = conditions: Pseudomonas aeruginosa, SR01332; VIM-11 MBL producing strain (carbapenem resistance strain); cation-adjusted Iso-Sensitest broth containing human Apo-transferrin; 5×10^5 cfu/mL; read-out: Minimum Inhibitory Concentration (MIC) P. aeruginosa SR01332
Protocol: as §1

E. cloacae NCTC13464 = conditions: Enterobacter cloacae, NCTC13464; CTX-M group 9 ESBL producing strain; cation-adjusted Iso-Sensitest broth containing human Apo-transferrin; 5×10^5 cfu/mL; read-out: Minimum Inhibitory Concentration (MIC) E. cloacae NCTC 13464
Protocol: as §1

E. coli ATCCBAA-196 = conditions: Escherichia coli, ATCCBAA196; TEM-10 ESBL producing strain; cation-adjusted Iso-Sensitest broth containing human Apo-transferrin; 5×10^5 cfu/mL; read-out: Minimum Inhibitory Concentration (MIC) E. coli ATCC BAA-196
Protocol: as §1

P. aeruginosa SR01335 = conditions: Pseudomonas aeruginosa, SR01335; VIM-1 like MBL producing strain (carbapenem resistance strain); cation-adjusted Iso-Sensitest broth containing human Apo-transferrin; 5×10^5 cfu/mL; read-out: Minimum Inhibitory Concentration (MIC) P. aeruginosa SR01335
Protocol: as §1

K. pneumoniae ATCC700603 = conditions: Klebsiella pneumoniae, ATCC700603; SHV18 ESBL producing strain; cation-adjusted Iso-Sensitest broth containing human Apo-transferrin; 5×10^5 cfu/mL; read-out: Minimum Inhibitory Concentration (MIC) K. pneumoniae ATCC 700603
Protocol: as §1

E. coli ATCCBAA-200 = conditions: Escherichia coli, ATCCBAA200; SHV-4 ESBL producing strain; cation-adjusted Iso-Sensitest broth containing human Apo-transferrin; 5×10^5 cfu/mL; read-out: Minimum Inhibitory Concentration (MIC) E. coli ATCC BAA-200
Protocol: as §1

E. coli SR01337 = conditions: Escherichia coli, SR01337; TEM-1 ESBL producing strain; cation-adjusted Iso-Sensitest broth containing human Apo-transferrin; 5×10^5 cfu/mL; read-out: Minimum Inhibitory Concentration (MIC) E. coli SR01337
Protocol: as §1

| SMILES | MIC (A. baumannii SR01331) | MIC (P. aeruginosa SR01332) | MIC (E. cloacae NCTC13464) | MIC (E. coli ATCCBAA-196) | MIC (P. aeruginosa SR01335) | MIC (K. pneumoniae ATCC700603) | MIC (E. coli ATCCBAA-200) | MIC (E. coli SR01337) |
| --- | --- | --- | --- | --- | --- | --- | --- | --- |
| CC(C)(O/N=C(\C(=O)N[C@@H]1C(=O)N2C(c3nnn[n-]3)=C(C[n+]3ccc4cc(O)c(O)cc4c3)CS[C@H]12)c1nsc(N)n1)C(=O)[O-].[Na+] [Compound I-113] | 0.125 µg/mL | 0.5 µg/mL | ≤ 0.031 µg/mL | 0.125 µg/mL | 0.25 µg/mL | 0.125 µg/mL | 0.25 µg/mL | ≤ 0.031 µg/mL |
| Nc1nc(/C(=N/O[C@@H](CC(=O)O)C(=O)[O-])C(=O)N[C@@H]2C(=O)N3C(c4nnn[nH]4)=C(C[N+]4(CCNC(=O)c5cc(O)c(O)c(F)c5)CCCC4)CS[C@H]23)cs1 [Compound I-99] | 0.5 µg/mL (≈ 0.633 µM) | 4 µg/mL (≈ 5.06 µM) | 0.125 µg/mL (≈ 0.158 µM) | ≤ 0.031 µg/mL | 2 µg/mL (≈ 2.53 µM) | 0.063 µg/mL (≈ 0.0798 µM) | 0.063 µg/mL (≈ 0.0798 µM) | ≤ 0.031 µg/mL |
| CC(C)(O/N=C(\C(=O)N[C@@H]1C(=O)N2C(c3nnn[n-]3)=C(C[n+]3ccc(CNC(=O)c4ccc(O)c(O)c4Cl)cc3)CS[C@H]12)c1nsc(N)n1)C(=O)[O-].[Na+] [Compound I-114] | 0.5 µg/mL | 1 µg/mL | 0.25 µg/mL | 0.5 µg/mL | 1 µg/mL | 1 µg/mL | 1 µg/mL | ≤ 0.031 µg/mL |
| CC(C)(O/N=C(\C(=O)N[C@@H]1C(=O)N2C(c3nnn[nH]3)=C(C[N+]3(CCNC(=O)c4ccc(O)c(O)c4F)CCCC3)CS[C@H]12)c1nsc(N)n1)C(=O)[O-] [Compound I-107] | 0.5 µg/mL (≈ 0.657 µM) | 2 µg/mL (≈ 2.63 µM) | 0.063 µg/mL (≈ 0.0828 µM) | 0.25 µg/mL (≈ 0.329 µM) | 2 µg/mL (≈ 2.63 µM) | 0.125 µg/mL (≈ 0.164 µM) | 0.5 µg/mL (≈ 0.657 µM) | 0.063 µg/mL (≈ 0.0828 µM) |
| CC(C)(O/N=C(\C(=O)N[C@@H]1C(=O)N2C(c3nnn[nH]3)=C(C[N+]34CCCC3CN(C(=O)c3cc(O)c(O)c(Cl)c3)CC4)CS[C@H]12)c1nsc(N)n1)C(=O)[O-] (stereo partly drawn) [Compound I-122] | 0.25 µg/mL (≈ 0.317 µM) | 4 µg/mL (≈ 5.07 µM) | 0.063 µg/mL (≈ 0.0798 µM) | 0.125 µg/mL (≈ 0.158 µM) | 1 µg/mL (≈ 1.27 µM) | 0.125 µg/mL (≈ 0.158 µM) | 0.25 µg/mL (≈ 0.317 µM) | ≤ 0.031 µg/mL |
| CC(C)(O/N=C(\C(=O)N[C@@H]1C(=O)N2C(c3nnn[n-]3)=C(C[N+]3(CCNC(=O)c4ccc(O)c(O)c4Cl)CCCC3)CS[C@H]12)c1csc(N)n1)C(=O)[O-].[Na+] [Compound I-82] | 0.5 µg/mL | 4 µg/mL | 0.125 µg/mL | 0.125 µg/mL | 1 µg/mL | 0.125 µg/mL | 0.25 µg/mL | ≤ 0.031 µg/mL |
| Nc1nc(/C(=N/O[C@@H](CC(=O)O)C(=O)[O-])C(=O)N[C@@H]2C(=O)N3C(c4nnn[nH]4)=C(C[N+]4(CCNC(=O)c5ccc(O)c(O)c5F)CCCC4)CS[C@H]23)cs1 [Compound I-102] | 0.25 µg/mL (≈ 0.317 µM) | 4 µg/mL (≈ 5.06 µM) | 0.063 µg/mL (≈ 0.0798 µM) | ≤ 0.031 µg/mL | 1 µg/mL (≈ 1.27 µM) | ≤ 0.031 µg/mL | 0.063 µg/mL (≈ 0.0798 µM) | ≤ 0.031 µg/mL |
| Nc1nc(/C(=N/O[C@@H](CC(=O)O)C(=O)[O-])C(=O)N[C@@H]2C(=O)N3C(c4nnn[nH]4)=C(C[N+]4(CCNC(=O)c5cc(O)c(O)c(F)c5)CCCC4)CS[C@H]23)c(Cl)s1 [Compound I-100] | 0.25 µg/mL (≈ 0.303 µM) | 2 µg/mL (≈ 2.43 µM) | 0.25 µg/mL (≈ 0.303 µM) | ≤ 0.031 µg/mL | 2 µg/mL (≈ 2.43 µM) | 0.125 µg/mL (≈ 0.152 µM) | 0.063 µg/mL (≈ 0.0764 µM) | ≤ 0.031 µg/mL |
| CC(C)(O/N=C(\C(=O)N[C@@H]1C(=O)N2C(c3nnn[n-]3)=C(C[n+]3ccc(NC(=O)c4ccc(O)c(O)c4Cl)cc3)CS[C@H]12)c1nsc(N)n1)C(=O)[O-].[Na+] [Compound I-116] | 0.25 µg/mL | 2 µg/mL | ≤ 0.031 µg/mL | 0.5 µg/mL | 1 µg/mL | 0.25 µg/mL | 1 µg/mL | ≤ 0.031 µg/mL |
| CC(C)(O/N=C(\C(=O)N[C@@H]1C(=O)N2C(c3nnn[nH]3)=C(C[N@+]34CCC[C@H]3CN(C(=O)c3ccc(O)c(O)c3Cl)CC4)CS[C@H]12)c1nsc(N)n1)C(=O)[O-] [Compound I-112] | 1 µg/mL (≈ 1.27 µM) | 4 µg/mL (≈ 5.07 µM) | 0.25 µg/mL (≈ 0.317 µM) | 0.5 µg/mL (≈ 0.634 µM) | 2 µg/mL (≈ 2.53 µM) | 0.5 µg/mL (≈ 0.634 µM) | – | 0.063 µg/mL (≈ 0.0798 µM) |
| Nc1nc(/C(=N/OC(C(=O)[O-])C(=O)[O-])C(=O)N[C@@H]2C(=O)N3C(C(=O)[O-])=C(C[N+]45CCC(CNC(=O)c6ccc(O)c(O)c6Cl)(CC4)CC5)CS[C@H]23)cs1.[Na+].[Na+] (stereo partly drawn) [Comparative Compound 2, reference compound] | > 32 µg/mL | 32 µg/mL | 0.5 µg/mL | 0.5 µg/mL | 4 µg/mL | 0.5 µg/mL | 1 µg/mL | > 32 µg/mL |
| CC(C)(O/N=C(\C(=O)N[C@@H]1C(=O)N2C(c3nnn[n-]3)=C(C[N+]3(C)[C@@H]4CC[C@H]3CC(NC(=O)c3cc(O)c(O)c(F)c3)C4)CS[C@H]12)c1nc(N)sc1Cl)C(=O)[O-].[Na+] (stereo partly drawn) [Compound I-33] | 0.5 µg/mL | 2 µg/mL | 0.25 µg/mL | 0.063 µg/mL | 4 µg/mL | 0.25 µg/mL | 0.25 µg/mL | 0.063 µg/mL |
| CC(C)(O/N=C(\C(=O)N[C@@H]1C(=O)N2C(c3nnn[nH]3)=C(C[N+]3(C)CCN(C(=O)c4ccc(O)c(O)c4Cl)CC3)CS[C@H]12)c1nsc(N)n1)C(=O)O.[Na+] [Compound I-110] | 1 µg/mL | 8 µg/mL | 0.25 µg/mL | 0.5 µg/mL | 0.5 µg/mL | 0.25 µg/mL | – | 0.063 µg/mL |
| Cc1cc2cc(O)c(O)cc2c[n+]1CC1=C(c2nnn[n-]2)N2C(=O)[C@@H](NC(=O)/C(=N\OC(C)(C)C(=O)[O-])c3nc(N)sc3Cl)[C@H]2SC1.[Na+] [Compound I-38] | 0.5 µg/mL | 0.5 µg/mL | 0.125 µg/mL | 0.063 µg/mL | 1 µg/mL | 0.125 µg/mL | 0.25 µg/mL | ≤ 0.031 µg/mL |
| Nc1nc(/C(=N/O[C@@H](CC(=O)[O-])C(=O)[O-])C(=O)N[C@@H]2C(=O)N3C(c4nnn[n-]4)=C(C[n+]4ccc5cc(O)c(O)cc5c4)CS[C@H]23)cs1.[Na+].[Na+] [Compound I-65] | 0.125 µg/mL | 0.25 µg/mL | ≤ 0.031 µg/mL | ≤ 0.031 µg/mL | 0.5 µg/mL | ≤ 0.031 µg/mL | ≤ 0.031 µg/mL | ≤ 0.031 µg/mL |
| CC(C)(O/N=C(\C(=O)N[C@@H]1C(=O)N2C(c3nnn[nH]3)=C(C[N+]3(CCNC(=O)c4ccc(O)c(O)c4F)CCCC3)CS[C@H]12)c1nc(N)sc1Cl)C(=O)[O-] [Compound I-106] | 0.5 µg/mL (≈ 0.63 µM) | 4 µg/mL (≈ 5.04 µM) | 0.063 µg/mL (≈ 0.0793 µM) | ≤ 0.031 µg/mL | 1 µg/mL (≈ 1.26 µM) | ≤ 0.031 µg/mL | 0.063 µg/mL (≈ 0.0793 µM) | ≤ 0.031 µg/mL |
| CC(C)(O/N=C(\C(=O)N[C@@H]1C(=O)N2C(c3nnn[n-]3)=C(C[n+]3ccc(CNC(=O)c4ccc(O)c(O)c4Cl)cc3)CS[C@H]12)c1nc(N)sc1Cl)C(=O)[O-].[Na+] [Compound I-31] | 0.5 µg/mL | 1 µg/mL | 0.125 µg/mL | 0.063 µg/mL | 1 µg/mL | 0.125 µg/mL | 0.25 µg/mL | ≤ 0.031 µg/mL |
| CC(C)(O/N=C(\C(=O)N[C@@H]1C(=O)N2C(c3nnn[nH]3)=C(C[N@+]34CCC[C@H]3CN(C(=O)c3cc(O)c(O)c(F)c3)CC4)CS[C@H]12)c1nsc(N)n1)C(=O)[O-] [Compound I-111] | 1 µg/mL (≈ 1.29 µM) | 2 µg/mL (≈ 2.59 µM) | 0.25 µg/mL (≈ 0.323 µM) | 1 µg/mL (≈ 1.29 µM) | 2 µg/mL (≈ 2.59 µM) | 0.5 µg/mL (≈ 0.647 µM) | – | 0.125 µg/mL (≈ 0.162 µM) |
